Columns and labels:
[1] = target: T1, human TLR8 (Homo sapiens, UniProt Q9NR97); test: TLR8 inhibition reporter assay (HEK-Blue cells, SEAP reporter, R848 stimulation); type: cell-based; conditions: HEK-Blue cells overexpressing human TLR8, R848 15.9 μM
T1 construct: host or cells: HEK-Blue cells
T1 sequence (Q9NR97 27-1041): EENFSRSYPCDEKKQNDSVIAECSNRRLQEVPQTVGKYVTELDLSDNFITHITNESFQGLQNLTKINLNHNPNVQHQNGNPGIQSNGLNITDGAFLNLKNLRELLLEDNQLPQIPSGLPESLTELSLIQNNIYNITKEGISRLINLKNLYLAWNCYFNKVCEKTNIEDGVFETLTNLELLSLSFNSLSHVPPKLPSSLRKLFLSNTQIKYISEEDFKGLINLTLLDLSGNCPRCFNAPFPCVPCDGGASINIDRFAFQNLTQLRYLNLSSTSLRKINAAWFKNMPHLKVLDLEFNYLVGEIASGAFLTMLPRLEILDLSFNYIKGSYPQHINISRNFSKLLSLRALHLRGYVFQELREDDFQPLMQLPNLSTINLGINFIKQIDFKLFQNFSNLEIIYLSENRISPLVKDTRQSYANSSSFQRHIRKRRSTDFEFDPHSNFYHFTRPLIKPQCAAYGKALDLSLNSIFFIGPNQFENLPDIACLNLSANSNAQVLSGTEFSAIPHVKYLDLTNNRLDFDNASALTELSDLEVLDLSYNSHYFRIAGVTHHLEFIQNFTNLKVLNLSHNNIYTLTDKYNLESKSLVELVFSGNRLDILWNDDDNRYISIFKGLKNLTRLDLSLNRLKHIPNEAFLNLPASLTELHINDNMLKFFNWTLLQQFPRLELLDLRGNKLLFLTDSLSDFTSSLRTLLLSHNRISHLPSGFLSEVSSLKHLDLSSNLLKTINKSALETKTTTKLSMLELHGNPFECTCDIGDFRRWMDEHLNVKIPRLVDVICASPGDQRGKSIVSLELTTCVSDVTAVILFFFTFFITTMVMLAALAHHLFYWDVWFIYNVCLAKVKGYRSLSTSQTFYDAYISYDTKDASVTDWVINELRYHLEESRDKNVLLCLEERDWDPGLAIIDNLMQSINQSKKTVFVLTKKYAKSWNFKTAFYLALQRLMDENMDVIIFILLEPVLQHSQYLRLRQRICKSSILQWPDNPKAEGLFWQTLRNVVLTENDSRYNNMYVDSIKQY
Method in brief: (§1)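 Cells (15000/well for TLR7, 20,000 for TLR8) were treated with compounds over 0.05 nM-50 μM final. After 22 h at 37° C, 5% CO2, SEAP was measured with HEK-Blue Detection reagent; percent inhibition was taken as reduction of agonist-plus-DMSO signal relative to a known inhibitor.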

[2] = target: T2, human TLR7 (Homo sapiens, UniProt Q9NYK1); test: TLR7 inhibition reporter assay (HEK-Blue cells, SEAP reporter, gardiquimod stimulation); type: cell-based; conditions: HEK-Blue cells overexpressing human TLR7, gardiquimod 7.5 μM
T2 construct: host or cells: HEK-Blue cells
T2 sequence (Q9NYK1 27-1049): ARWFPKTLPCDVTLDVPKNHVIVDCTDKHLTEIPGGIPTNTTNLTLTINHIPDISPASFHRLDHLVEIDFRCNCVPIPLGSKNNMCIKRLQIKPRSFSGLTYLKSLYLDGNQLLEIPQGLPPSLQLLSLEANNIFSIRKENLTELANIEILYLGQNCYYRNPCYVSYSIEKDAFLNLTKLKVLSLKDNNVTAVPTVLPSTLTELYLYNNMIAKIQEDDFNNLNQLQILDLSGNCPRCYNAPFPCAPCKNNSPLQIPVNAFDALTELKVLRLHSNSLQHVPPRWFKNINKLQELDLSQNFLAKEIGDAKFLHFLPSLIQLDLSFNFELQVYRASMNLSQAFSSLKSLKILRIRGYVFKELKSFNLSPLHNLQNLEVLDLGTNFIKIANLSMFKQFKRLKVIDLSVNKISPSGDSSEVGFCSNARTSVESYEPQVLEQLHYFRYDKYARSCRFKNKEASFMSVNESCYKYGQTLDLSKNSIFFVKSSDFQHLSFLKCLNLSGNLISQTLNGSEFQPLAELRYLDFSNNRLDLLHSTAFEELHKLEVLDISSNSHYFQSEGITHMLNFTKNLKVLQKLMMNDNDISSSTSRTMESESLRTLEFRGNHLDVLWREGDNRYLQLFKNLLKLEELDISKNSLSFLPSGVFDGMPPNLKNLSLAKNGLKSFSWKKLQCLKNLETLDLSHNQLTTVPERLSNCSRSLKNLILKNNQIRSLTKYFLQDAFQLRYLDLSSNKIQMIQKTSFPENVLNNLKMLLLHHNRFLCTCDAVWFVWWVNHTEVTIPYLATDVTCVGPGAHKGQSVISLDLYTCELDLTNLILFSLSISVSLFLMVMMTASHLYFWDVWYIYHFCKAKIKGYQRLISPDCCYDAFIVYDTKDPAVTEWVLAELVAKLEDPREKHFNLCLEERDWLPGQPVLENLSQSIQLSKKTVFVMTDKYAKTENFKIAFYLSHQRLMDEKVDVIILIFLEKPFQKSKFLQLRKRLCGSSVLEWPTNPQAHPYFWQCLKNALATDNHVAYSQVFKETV
Method in brief: as §1

SMILES | IC50 [1] [µM] | IC50 [2] [µM]
COc1ccc(-c2[nH]c3ccc(C4CCNCC4(F)F)cc3c2C(C)C)cc1OC (stereo not shown) [Example 325, 5-(3,3-difluoropiperidin-4-yl)-2-(3,4-dimethoxyphenyl)-3-isopropyl-1H-indole] | 0.147 | 0.269
COc1ccc(-c2[nH]c3ccc(C4CCN(C(=O)COc5cccnc5)CC4)cc3c2CC(F)(F)F)cc1OC [Example 349, 1-(4-(2-(3,4-dimethoxyphenyl)-3-(2,2,2-trifluoroethyl)-1H-indol-5-yl)piperidin-1-yl)-2-(pyridin-3-yloxy)ethan-1-one] | 0.671 | 0.291
CCN(CC)C(=O)C1CCCN(CC(=O)N2CCC(c3ccc4[nH]c(-c5ccc(OC)c(OC)c5)c(C)c4c3)CC2)C1 (stereo not shown) [Example 404, 1-(2-(4-(2-(3,4-dimethoxyphenyl)-3-methyl-1H-indol-5-yl)piperidin-1-yl)-2-oxoethyl)-N,N-diethylpiperidine-3-carboxamide] | 3.75 | 3.15
COc1ccc(-c2[nH]c3ccc(C4CCN(C(=O)C[C@H](C)O)CC4)cc3c2CC(F)(F)F)cc1OC [Example 352, (S)-1-(4-(2-(3,4-dimethoxyphenyl)-3-(2,2,2-trifluoroethyl)-1H-indol-5-yl)piperidin-1-yl)-3-hydroxybutan-1-one] | 0.765 | 0.458
COc1ccc(-c2[nH]c3ccc(C4CCN(C(=O)Cc5c[nH]c6ccccc56)CC4)cc3c2CC(F)(F)F)cc1OC [Example 332, 1-(4-(2-(3,4-dimethoxyphenyl)-3-(2,2,2-trifluoroethyl)-1H-indol-5-yl)piperidin-1-yl)-2-(1H-indol-3-yl)ethan-1-one] | 4.11 | 1.86
COc1ccc(-c2[nH]c3ccc(C4CCN(C(=O)CNC[C@@H](O)CO)CC4)cc3c2C)cc1OC [Example 405, (R)-2-((2,3-dihydroxypropyl)amino)-1-(4-(2-(3,4-dimethoxyphenyl)-3-methyl-1H-indol-5-yl)piperidin-1-yl)ethan-1-one] | 29.2 | 18.3
COc1ccc(-c2[nH]c3ccc(C4CCN(C(=O)CS(C)(=O)=O)CC4)cc3c2CC(F)(F)F)cc1OC [Example 347, 1-(4-(2-(3,4-dimethoxyphenyl)-3-(2,2,2-trifluoroethyl)-1H-indol-5-yl)piperidin-1-yl)-2-(methylsulfonyl)ethan-1-one] | 0.767 | 0.155
COc1ccc(-c2[nH]c3ccc(C4CCN(C(=O)Cc5c[nH]cn5)CC4)cc3c2CC(F)(F)F)cc1OC [Example 334, 1-(4-(2-(3,4-dimethoxyphenyl)-3-(2,2,2-trifluoroethyl)-1H-indol-5-yl)piperidin-1-yl)-2-(1H-imidazol-4-yl)ethan-1-one] | 0.412 | 0.13
COc1ccc(-c2[nH]c3ccc(C4CCN(C(=O)Cc5nnn[nH]5)CC4)cc3c2CC(F)(F)F)cc1OC [Example 341, 1-(4-(2-(3,4-dimethoxyphenyl)-3-(2,2,2-trifluoroethyl)-1H-indol-5-yl)piperidin-1-yl)-2-(1H-tetrazol-5-yl)ethan-1-one] | 9.39 | 5.03
COc1ccc(-c2[nH]c3ccc(C4CCN(CC(=O)N5CCC(C(N)=O)CC5)CC4)cc3c2CC(F)(F)F)cc1OC [Example 369, 1-(2-(4-(2-(3,4-dimethoxyphenyl)-3-(2,2,2-trifluoroethyl)-1H-indol-5-yl)piperidin-1-yl)acetyl)piperidine-4-carboxamide] | 0.043 | 0.101
COc1ccc(-c2[nH]c3ccc(C4CCN(CC(=O)N5CCC(N6CCCCC6)CC5)CC4)cc3c2CC(F)(F)F)cc1OC [Example 359, 1-([1,4′-bipiperidin]-1′-yl)-2-(4-(2-(3,4-dimethoxyphenyl)-3-(2,2,2-trifluoroethyl)-1H-indol-5-yl)piperidin-1-yl)ethan-1-one] | 0.063 | 0.019
COc1ccc(-c2[nH]c3ccc(C4CCNCC4F)cc3c2C(C)C)cc1OC (single isomer, unassigned) [Example 321, 2-(3,4-dimethoxyphenyl)-5-(3-fluoropiperidin-4-yl)-3-isopropyl-1H-indole] | 0.021 | 0.022
COc1ccc(-c2[nH]c3ccc(C4CCN(CC(=O)NCCCN5CCCC5=O)CC4)cc3c2CC(F)(F)F)cc1OC [Example 376, 2-(4-(2-(3,4-dimethoxyphenyl)-3-(2,2,2-trifluoroethyl)-1H-indol-5-yl)piperidin-1-yl)-N-(3-(2-oxopyrrolidin-1-yl)propyl)acetamide] | 0.065 | 0.178
CNC(=O)CN1CCC(c2ccc3[nH]c(-c4ccc(OC)c(OC)c4)c(CC(F)F)c3c2)CC1 [Example 401, 2-(4-(3-(2,2-difluoroethyl)-2-(3,4-dimethoxyphenyl)-1H-indol-5-yl)piperidin-1-yl)-N-methylacetamide] | 0.128 | 0.132
COc1ccc(-c2[nH]c3ccc(C4CCN(C(=O)CCc5cccnc5)CC4)cc3c2CC(F)(F)F)cc1OC [Example 348, 1-(4-(2-(3,4-dimethoxyphenyl)-3-(2,2,2-trifluoroethyl)-1H-indol-5-yl)piperidin-1-yl)-3-(pyridin-3-yl) propan-1-one] | 1.42 | 0.413
COc1ccc(-c2[nH]c3ccc(C4CCN(C(=O)CN(C)C)CC4)cc3c2C)cc1OC [Example 402, 1-(4-(2-(3,4-dimethoxyphenyl)-3-methyl-1H-indol-5-yl)piperidin-1-yl)-2-(dimethylamino)ethan-1-one] | 2.28 | 0.544
COc1ccc(-c2[nH]c3ccc(C4CCN(C(=O)NCCc5ccccc5)CC4)cc3c2CC(F)(F)F)cc1OC [Example 357, 4-(2-(3,4-dimethoxyphenyl)-3-(2,2,2-trifluoroethyl)-1H-indol-5-yl)-N-phenethylpiperidine-1-carboxamide] | 0.943 | 0.69
COc1ccc(-c2[nH]c3ccc(C4CCN(CC(=O)N5CC[C@@H](N(C)C)C5)CC4)cc3c2CC(F)(F)F)cc1OC [Example 373, (R)-2-(4-(2-(3,4-dimethoxyphenyl)-3-(2,2,2-trifluoroethyl)-1H-indol-5-yl)piperidin-1-yl)-1-(3-(dimethylamino)pyrrolidin-1-yl)ethan-1-one] | 0.044 | 0.016
COc1ccc(-c2[nH]c3ccc(C4CCN(CC(=O)NCCc5ccc(S(N)(=O)=O)cc5)CC4)cc3c2CC(F)(F)F)cc1OC [Example 384, 2-(4-(2-(3,4-dimethoxyphenyl)-3-(2,2,2-trifluoroethyl)-1H-indol-5-yl)piperidin-1-yl)-N-(4-sulfamoylphenethyl)acetamide] | 0.081 | 0.15
COc1ccc(-c2[nH]c3ccc(C4CCNCC4F)cc3c2C(C)C)cc1OC (single isomer, unassigned) [Example 322, 2-(3,4-dimethoxyphenyl)-5-(3-fluoropiperidin-4-yl)-3-isopropyl-1H-indole] | 0.022 | 0.021
